Experimental data as given in article PMC4197230, “Terpene synthases and their contribution to herbivore-induced volatile emission in western balsam poplar (Populus trichocarpa)” (BMC Plant Biology, 2014).
One block for each molecule: values may come before it.

What was measured:
Format in all cases: biochemical
PtTPS12 = target: T1, PtTPS12 (Populus trichocarpa, UniProt A0A076GAU9); assay: SPME GC-MS product analysis, bacterial extract; details: 10 mM MgCl2, pH 7.0, 30 C, desalted E. coli extract, empty-vector control
T1 construct: gene TPS12; N-terminally truncated (first 126 nt deleted, predicted plastid transit peptide), pASK-IBA7, E. coli TOP10, desalted bacterial extract

PtTPS14 = target: T2, PtTPS14 (Populus trichocarpa, UniProt A0A076GBU1); assay: SPME GC-MS product analysis, bacterial extract; details: 10 uM FPP, 10 mM MgCl2, pH 7.0, 30 C; desalted E. coli extract, empty-vector control; marginal activity
T2 construct: gene TPS14; full ORF in pASK-IBA7 (vector tag, if any, not described), E. coli TOP10, desalted bacterial extract
T2 sequence (A0A076GBU1 1-560): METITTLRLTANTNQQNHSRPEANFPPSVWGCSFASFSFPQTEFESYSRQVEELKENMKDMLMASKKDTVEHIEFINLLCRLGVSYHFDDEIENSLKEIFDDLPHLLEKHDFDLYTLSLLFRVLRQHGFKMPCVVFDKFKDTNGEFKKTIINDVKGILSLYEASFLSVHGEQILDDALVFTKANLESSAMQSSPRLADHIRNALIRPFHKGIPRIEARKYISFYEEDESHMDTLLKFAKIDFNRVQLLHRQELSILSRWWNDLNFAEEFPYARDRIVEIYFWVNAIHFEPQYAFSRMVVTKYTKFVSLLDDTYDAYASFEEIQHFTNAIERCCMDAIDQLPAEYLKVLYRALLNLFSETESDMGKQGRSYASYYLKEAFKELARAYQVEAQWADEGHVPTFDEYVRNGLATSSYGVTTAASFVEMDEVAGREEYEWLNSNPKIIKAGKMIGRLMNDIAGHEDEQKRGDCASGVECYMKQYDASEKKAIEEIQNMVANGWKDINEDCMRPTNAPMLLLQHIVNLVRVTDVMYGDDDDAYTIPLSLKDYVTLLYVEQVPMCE

PtTPS15 = target: T3, PtTPS15 (Populus trichocarpa, UniProt A0A076GBT1); assay: SPME GC-MS product analysis, bacterial extract; details: 10 mM MgCl2, pH 7.0, 30 C, desalted E. coli extract, empty-vector control
T3 construct: gene TPS15; full ORF in pASK-IBA7 (vector tag, if any, not described), E. coli TOP10, desalted bacterial extract
T3 sequence (A0A076GBT1 1-528): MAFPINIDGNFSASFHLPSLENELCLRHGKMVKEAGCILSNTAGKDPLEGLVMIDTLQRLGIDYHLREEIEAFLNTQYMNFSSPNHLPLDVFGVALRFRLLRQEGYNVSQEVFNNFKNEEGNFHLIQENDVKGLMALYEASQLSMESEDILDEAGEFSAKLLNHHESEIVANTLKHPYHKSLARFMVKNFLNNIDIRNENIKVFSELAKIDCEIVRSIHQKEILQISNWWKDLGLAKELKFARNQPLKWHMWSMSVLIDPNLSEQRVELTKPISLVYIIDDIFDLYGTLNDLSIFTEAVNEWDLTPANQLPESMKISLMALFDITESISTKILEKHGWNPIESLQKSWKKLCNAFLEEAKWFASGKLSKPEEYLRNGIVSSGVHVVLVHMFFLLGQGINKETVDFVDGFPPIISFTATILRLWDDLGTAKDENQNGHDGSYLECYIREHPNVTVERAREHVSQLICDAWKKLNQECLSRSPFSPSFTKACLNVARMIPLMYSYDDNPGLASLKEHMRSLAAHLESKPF

PtTPS9 = target: T4, PtTPS9 (Populus trichocarpa, UniProt A0A076GBT5); assay: SPME GC-MS product analysis, bacterial extract; details: 10 uM FPP, 10 mM MgCl2, pH 7.0, 30 C; desalted E. coli extract, empty-vector control
T4 construct: gene TPS9; full ORF in pASK-IBA7 (vector tag, if any, not described), E. coli TOP10, desalted bacterial extract
T4 sequence (A0A076GBT5 1-569): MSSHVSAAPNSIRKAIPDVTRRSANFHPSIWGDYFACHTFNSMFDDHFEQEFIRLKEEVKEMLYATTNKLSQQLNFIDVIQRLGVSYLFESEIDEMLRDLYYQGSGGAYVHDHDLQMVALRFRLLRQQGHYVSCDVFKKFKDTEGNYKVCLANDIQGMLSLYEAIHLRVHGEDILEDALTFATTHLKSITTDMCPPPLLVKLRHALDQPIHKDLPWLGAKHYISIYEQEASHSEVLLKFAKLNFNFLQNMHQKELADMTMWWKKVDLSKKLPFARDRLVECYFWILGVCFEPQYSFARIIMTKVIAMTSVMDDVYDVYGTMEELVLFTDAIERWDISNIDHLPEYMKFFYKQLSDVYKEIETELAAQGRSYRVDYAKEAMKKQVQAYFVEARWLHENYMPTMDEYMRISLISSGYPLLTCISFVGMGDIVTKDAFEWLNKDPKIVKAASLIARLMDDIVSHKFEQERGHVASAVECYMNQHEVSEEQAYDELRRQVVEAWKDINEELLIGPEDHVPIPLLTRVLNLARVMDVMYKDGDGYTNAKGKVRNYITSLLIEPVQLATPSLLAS

PtTPS10 = target: T5, PtTPS10 (Populus trichocarpa, UniProt A0A076GH23); assay: hexane overlay GC-MS product analysis, bacterial extract; details: 50 uM GGPP, 10 mM MgCl2, pH 7.0, 30 C, 60 min; desalted E. coli extract, empty-vector control
T5 construct: gene TPS10; full ORF in pASK-IBA7 (vector tag, if any, not described), E. coli TOP10, desalted bacterial extract
T5 sequence (A0A076GH23 1-836): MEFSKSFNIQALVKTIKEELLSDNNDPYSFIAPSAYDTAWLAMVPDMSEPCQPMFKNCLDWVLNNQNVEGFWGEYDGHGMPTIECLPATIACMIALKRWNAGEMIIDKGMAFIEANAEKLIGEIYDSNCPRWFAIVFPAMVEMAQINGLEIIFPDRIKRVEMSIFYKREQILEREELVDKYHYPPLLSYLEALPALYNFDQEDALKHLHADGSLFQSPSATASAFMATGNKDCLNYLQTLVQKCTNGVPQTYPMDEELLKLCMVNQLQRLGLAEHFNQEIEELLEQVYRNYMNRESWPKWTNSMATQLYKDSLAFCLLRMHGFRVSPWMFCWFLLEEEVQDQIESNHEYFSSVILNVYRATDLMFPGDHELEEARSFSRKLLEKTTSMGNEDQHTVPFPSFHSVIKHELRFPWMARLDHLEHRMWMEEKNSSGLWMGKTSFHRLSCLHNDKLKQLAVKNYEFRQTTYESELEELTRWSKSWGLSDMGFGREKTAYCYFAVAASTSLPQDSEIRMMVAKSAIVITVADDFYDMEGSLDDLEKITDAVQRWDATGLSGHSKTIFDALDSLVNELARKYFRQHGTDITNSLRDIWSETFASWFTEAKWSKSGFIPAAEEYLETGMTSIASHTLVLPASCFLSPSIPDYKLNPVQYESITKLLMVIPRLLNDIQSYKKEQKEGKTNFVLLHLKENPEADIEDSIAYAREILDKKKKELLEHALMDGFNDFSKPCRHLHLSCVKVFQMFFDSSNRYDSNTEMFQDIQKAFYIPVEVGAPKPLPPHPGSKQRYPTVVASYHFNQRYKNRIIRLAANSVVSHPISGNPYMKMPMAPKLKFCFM

PtTPS11 = target: T6, PtTPS11 (Populus trichocarpa, UniProt A0A076GAR6); assay: SPME GC-MS product analysis, bacterial extract; details: 10 uM GPP, 10 mM MgCl2, pH 7.0, 30 C; desalted E. coli extract, empty-vector control
T6 construct: gene TPS11; full ORF in pASK-IBA7 (vector tag, if any, not described), E. coli TOP10, desalted bacterial extract
T6 sequence (A0A076GAR6 1-551): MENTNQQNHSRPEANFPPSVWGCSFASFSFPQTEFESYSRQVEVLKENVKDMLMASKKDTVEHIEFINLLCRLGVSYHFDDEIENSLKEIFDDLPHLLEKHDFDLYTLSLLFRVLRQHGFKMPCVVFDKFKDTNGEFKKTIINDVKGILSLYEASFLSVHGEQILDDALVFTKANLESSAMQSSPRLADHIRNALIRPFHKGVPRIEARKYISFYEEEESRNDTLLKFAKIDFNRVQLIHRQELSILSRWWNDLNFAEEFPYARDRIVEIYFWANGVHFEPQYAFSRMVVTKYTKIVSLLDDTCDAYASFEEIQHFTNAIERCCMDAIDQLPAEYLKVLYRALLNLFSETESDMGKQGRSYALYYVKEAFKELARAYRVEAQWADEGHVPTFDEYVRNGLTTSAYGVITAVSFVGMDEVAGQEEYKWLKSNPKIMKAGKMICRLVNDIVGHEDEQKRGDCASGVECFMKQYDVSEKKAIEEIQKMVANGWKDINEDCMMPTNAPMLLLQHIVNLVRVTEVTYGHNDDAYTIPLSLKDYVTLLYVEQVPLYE

PtTPS6 = target: T7, PtTPS6 (Populus trichocarpa, UniProt A0A076GAR5); assay: SPME GC-MS product analysis, bacterial extract; details: 10 uM GPP, 10 mM MgCl2, pH 7.0, 30 C; desalted E. coli extract, empty-vector control
T7 construct: gene TPS6; N-terminally truncated (first 57 nt deleted, predicted plastid transit peptide), pASK-IBA7, E. coli TOP10, desalted bacterial extract
T7 sequence (A0A076GAR5 entry or part of it): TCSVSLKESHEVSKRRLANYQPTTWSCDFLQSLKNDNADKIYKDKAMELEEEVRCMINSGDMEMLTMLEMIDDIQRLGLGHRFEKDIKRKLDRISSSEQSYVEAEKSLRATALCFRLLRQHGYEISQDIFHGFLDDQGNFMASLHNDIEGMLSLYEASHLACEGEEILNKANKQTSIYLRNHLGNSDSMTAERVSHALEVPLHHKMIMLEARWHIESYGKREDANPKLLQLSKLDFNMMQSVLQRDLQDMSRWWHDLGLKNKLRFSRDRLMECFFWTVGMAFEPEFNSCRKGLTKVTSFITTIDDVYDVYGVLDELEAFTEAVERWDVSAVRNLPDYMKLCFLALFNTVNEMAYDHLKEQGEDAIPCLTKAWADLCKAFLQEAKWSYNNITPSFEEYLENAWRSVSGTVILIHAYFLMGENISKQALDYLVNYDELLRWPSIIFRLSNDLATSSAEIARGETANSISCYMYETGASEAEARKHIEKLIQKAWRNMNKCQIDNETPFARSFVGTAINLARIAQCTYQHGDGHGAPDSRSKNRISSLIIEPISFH

T1 sequence (A0A076GAU9 entry or part of it): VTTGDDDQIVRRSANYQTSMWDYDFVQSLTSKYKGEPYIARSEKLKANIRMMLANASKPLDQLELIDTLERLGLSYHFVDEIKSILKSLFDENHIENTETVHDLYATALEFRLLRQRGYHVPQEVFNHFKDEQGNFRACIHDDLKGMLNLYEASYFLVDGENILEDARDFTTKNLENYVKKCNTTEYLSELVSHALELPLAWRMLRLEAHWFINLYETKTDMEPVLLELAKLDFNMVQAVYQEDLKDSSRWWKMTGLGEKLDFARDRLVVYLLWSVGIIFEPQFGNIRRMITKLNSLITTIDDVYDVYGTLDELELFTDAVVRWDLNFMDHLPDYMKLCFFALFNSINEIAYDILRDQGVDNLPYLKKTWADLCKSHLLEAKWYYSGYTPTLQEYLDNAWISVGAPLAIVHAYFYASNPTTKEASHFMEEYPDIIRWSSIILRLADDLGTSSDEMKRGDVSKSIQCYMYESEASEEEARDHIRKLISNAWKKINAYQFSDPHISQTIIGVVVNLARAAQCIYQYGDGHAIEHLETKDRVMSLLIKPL

SMILES: CC(C)=CCC/C(C)=C/CC/C(C)=C/COP(=O)(O)OP(=O)(O)O [FPP]
- SPME GC-MS product analysis, bacterial extract (PtTPS12; 10 uM FPP): PtTPS12 showed a broad sesquiterpene product spectrum
- SPME GC-MS product analysis, bacterial extract (PtTPS14): PtTPS14 showed only marginal activity with FPP and produced trace amounts of germacrene D
- SPME GC-MS product analysis, bacterial extract (PtTPS15; 10 uM FPP): PtTPS15 was able to convert FPP to nerolidol
- SPME GC-MS product analysis, bacterial extract (PtTPS9): PtTPS9 produced (E)-β-caryophyllene and smaller amounts of α-humulene

SMILES: CC(C)=CCC/C(C)=C/CC/C(C)=C/CC/C(C)=C/COP(=O)(O)OP(=O)(O)O [GGPP]
- hexane overlay GC-MS product analysis, bacterial extract (PtTPS10): PtTPS10 represented a DTS and was able to convert GGPP into geranyllinalool

- SPME GC-MS product analysis, bacterial extract (PtTPS15; 10 uM GPP): PtTPS15, which produced only linalool
SMILES: CC(C)=CCC/C(C)=C/COP(=O)(O)OP(=O)(O)O [GPP]
- SPME GC-MS product analysis, bacterial extract (PtTPS12; 10 uM GPP): PtTPS12 which formed linalool and trace amounts of β-phellandrene
- SPME GC-MS product analysis, bacterial extract (PtTPS11): When offered GPP as a substrate, PtTPS11 formed several monoterpenes
- SPME GC-MS product analysis, bacterial extract (PtTPS6): (PtTPS6, PtTPS12, PtTPS13 and PtTPS15) accepted GPP as substrate and produced monoterpenes
